According to patent US20250295628A1 (priority 2022, published 2025):

How the values were obtained:
[1] = Solid stability: main component content over time under storage conditions (Example 15); assay type: physicochemical
[2] = Compatibility stability and pH of 2 mg/ml solutions in normal saline and 5% glucose injection at room temperature (Example 15); assay type: physicochemical; conditions: for main component content in solution: 2 mg/ml, room temperature
[3] = Acute toxicity in SD rats (Example 16); assay type: in vivo; conditions: both sexes, rat, in vivo, 3 g/kg, single intravenous injection, read-out: rat MTD, injected
From the text: (§1) SPF-grade SD rats, 180˜220 g, 70 males and 70 females, were divided into 7 groups, 10 males and 10 females in each group. Rats in group 1 were intravenous injected with 3 g/kg of D3; rats in group 2 were intravenous injected with 3 g/kg of composition 3; rats in group 3 were intravenous injected with 3 g/kg of composition 3-powder injection; rats in group 4 were orally administrated with 5 g/kg of composition 3-enteric-coated granule; rats in group 5 were orally administrated with 5 g/kg of composition 3-enteric-coated capsule; rats in group 6 were orally administrated with 5 g/kg of composition 3-enteric-coated sustained-release capsule; group 7 was a blank group. After administration, the poisoning situation was observed every day, and no obvious poisoning reaction was found.

[4] = test system: SD rats; experiment: Acute toxicity in SD rats (Example 16); assay type: in vivo; conditions: intravenous 3 g/kg, observed 14 days
From the text: as §1

[5] = Acute toxicity in beagles (Example 16); assay type: in vivo; conditions: both sexes, beagle, dog, in vivo, 2 g/kg, single intravenous injection, read-out: dog MTD, injected
From the text: (§2) Ordinary grade beagles 8˜10 kg, 70 males and 70 females, were divided into 7 groups, 10 males and 10 females in each group. Beagles in group 1 were intravenous injected with 2 g/kg of D3; beagles in group 2 were intravenous injected with 2 g/kg of composition 3; beagles in group 3 were intravenous injected with 2 g/kg of composition 3-powder injection; beagles in group 4 were orally administrated with 5 g/kg of composition 3-enteric-coated granule; beagles in group 5 were orally administrated with 5 g/kg of composition 3-enteric-coated capsule; beagles in group 6 were orally administrated with 5 g/kg of composition 3-enteric-coated sustained-release capsule; group 7 was a blank group. After administration, the poisoning situation was observed every day, and no obvious poisoning reaction was found.

[6] = test system: beagles; experiment: Acute toxicity in beagles (Example 16); assay type: in vivo; conditions: intravenous 2 g/kg, observed 14 days
From the text: as §2

[7] = test system: chronic cadmium poisoning model rabbits; experiment: Cadmium-removing effect by intravenous drip in chronic cadmium poisoning rabbits (Example 18); assay type: in vivo, New Zealand rabbits; conditions: for Urine β2-microglobulin values: after four weeks of administration
From the text: 205 male New Zealand rabbits, 1.8˜2.2 kg, were randomly divided into a blank control group with 25 rabbits and chronic cadmium poisoning groups with a total of 180 rabbits. The model rabbits were ear margin intravenous injected with a mixed solution containing 1.5 μmol/kg CdCl2 and 30 μmol/kg thioethanol (ME) according to weight, once/d for continuous 5 days, and observed for 35 days. After 35 days, qualified rabbits were selected according to weight, including 18 rabbits in the blank group and 162 rabbits in the poisoning group. The 162 rabbits in the poisoning group were randomly divided into a model group, D3 high-dose group, D3 low-dose group, compound 3B high-dose group, compound 3B low-dose group, composition 3 high-dose group, composition 3 low-dose group, composition 3-powder injection high-dose group, composition 3-powder injection low-dose group, with 18 rabbits in each group. Rabbits in the mode group and the blank group were administered by intravenous drip with the same volume of normal saline, with a rate of 30 drops/min for a dripping time of about 2 h, 1 time/d, 5 d/week. After administration on the last day of week 1, week 2 and week 4, the urine of 0 h˜6 h and the urine of 7 h˜24 h of rabbits were respectively collected; the content of cadmium in blood, urine and kidney, and the cadmium-removing rate from blood and kidney were determined, and the results are shown in Table 6.

[8] = Solid stability of compositions 1-11 and compounds 1A-11A: main component content over time under different conditions (Example 37, Table 32); assay type: physicochemical
Experimental: Compositions 1-11 and compounds 1A-11A were placed at environments of −25° C., 5±3° C., 25±2° C./60±5% RH, 40±2° C./75±5% RH, 60° C. for 0 d, 5 d and 10 d (d refers to day), respectively, and changes of the main component content (the main component content of 0 day was converted to 100%) were measured, the results are shown in Table 32.

[9] = 1 w of treatment, high-dose group (D3 433, composition 3 and composition 3-preparation 108 mg/kg)
[10] = 1 w of treatment, high-dose group (D3 433, compound 3B 83.5, composition 3 and composition 3-preparation 108 mg/kg)
[11] = 1 w of treatment, low-dose group (D3 108, composition 3 and composition 3-preparation 27 mg/kg)
[12] = 1 w of treatment, low-dose group (D3 108, compound 3B 21, composition 3 and composition 3-preparation 27 mg/kg)
[13] = 2 w of treatment, high-dose group (D3 433, composition 3 and composition 3-preparation 108 mg/kg)
[14] = 2 w of treatment, high-dose group (D3 433, compound 3B 83.5, composition 3 and composition 3-preparation 108 mg/kg)
[15] = 2 w of treatment, low-dose group (D3 108, composition 3 and composition 3-preparation 27 mg/kg)
[16] = 2 w of treatment, low-dose group (D3 108, compound 3B 21, composition 3 and composition 3-preparation 27 mg/kg)
[17] = 4 w of treatment, high-dose group (D3 433, composition 3 and composition 3-preparation 108 mg/kg)
[18] = 4 w of treatment, high-dose group (D3 433, compound 3B 83.5, composition 3 and composition 3-preparation 108 mg/kg)
[19] = 4 w of treatment, low-dose group (D3 108, composition 3 and composition 3-preparation 27 mg/kg)
[20] = 4 w of treatment, low-dose group (D3 108, compound 3B 21, composition 3 and composition 3-preparation 27 mg/kg)

## CSCCC(C(=O)[O-])N(CC(O)C(O)C(O)C(O)CO)C(=S)[S][Na].[Na+] [Composition D3, N-(2,3,4,5,6-pentahydroxyhexyl)-(N-disubstitutedsodium formate)-L-sodium methionate]
[1]; 5 ± 3° C., 0 d (converted to 100%)
  main component content: 100%
[1]; 5 ± 3° C., 5 d
  main component content: 97.3%
[1]; 5 ± 3° C., 10 d
  main component content: 96.5%
[1]; 5 ± 3° C., 30 d
  main component content: 90.8%
[1]; 5±3° C., 180 d
  decrease of the main component content / stability on 180 d: about 18.8%
  main component content: 81.2%
[1]; 25 ± 2° C./60 ± 5% RH, 0 d (converted to 100%)
  main component content: 100%
[1]; 25 ± 2° C./60 ± 5% RH, 5 d
  main component content: 95.1%
[1]; 25 ± 2° C./60 ± 5% RH, 10 d
  main component content: 90.3%
[1]; 25 ± 2° C./60 ± 5% RH, 30 d
  main component content: 84.6%
[1]; 25 ± 2° C./60 ± 5% RH, 180 d
  main component content: 64.2%
[1]; 40 ± 2° C./75 ± 5% RH, 0 d (converted to 100%)
  main component content: 100%
[1]; 40 ± 2° C./75 ± 5% RH, 5 d
  main component content: 91.2%
[1]; 40 ± 2° C./75 ± 5% RH, 10 d
  main component content: 84.3%
[1]; 40 ± 2° C./75 ± 5% RH, 30 d
  main component content: 60.3%
[1]; −25° C., 0 d (converted to 100%)
  main component content: 100%
[1]; −25° C., 5 d
  main component content: 101.2%
[1]; −25° C., 10 d
  main component content: 99.8%
[1]; −25° C., 30 d
  main component content: 100.7%
[1]; −25° C., 180 d
  main component content: 99.9%
[2]; 2 mg/ml solution in 5% glucose injection
  pH: 9.7
[2]; 2 mg/ml solution in normal saline
  pH: 9.7
[2]; 5% glucose injection, 0 h (converted to 100%)
  main component content in solution: 100%
[2]; 5% glucose injection, 1 h
  main component content in solution: 90%
[2]; 5% glucose injection, 2 h
  main component content in solution: 81%
[2]; 5% glucose injection, 4 h
  main component content in solution: 69%
[2]; 5% glucose injection, 8 h
  main component content in solution: 54%
[2]; normal saline, 0 h (converted to 100%)
  main component content in solution: 100%
[2]; normal saline, 1 h
  main component content in solution: 95%
[2]; normal saline, 2 h
  main component content in solution: 83%
[2]; normal saline, 4 h
  main component content in solution: 73%
[2]; normal saline, 8 h
  main component content in solution: 71%
[3]
  MTD at 14 d: > 3000 mg/kg
[4]
  acute toxicity observation: no obvious toxicity
[5]
  MTD at 14 d: > 2000 mg/kg
[6]
  acute toxicity observation: no obvious toxicity
[7]; [9]
  Removing rate (cadmium in blood): 13.9%
  Removing rate (cadmium in kidney): 47.8%
[7]; [10]
  Cadmium in blood: 89.45 ± 13.31 µg/L
  Cadmium in kidney: 6.53 ± 2.16 µg/L
[7]; [11]
  Removing rate (cadmium in blood): 6.8%
  Removing rate (cadmium in kidney): 39.7%
[7]; [12]
  Cadmium in blood: 96.60 ± 6.31 µg/L
  Cadmium in kidney: 7.42 ± 3.83 µg/L
[7]; [13]
  Removing rate (cadmium in blood): 16.9%
  Removing rate (cadmium in kidney): 77.0%
[7]; [14]
  Cadmium in blood: 61.39 ± 12.47 µg/L
  Cadmium in kidney: 3.36 ± 1.08 µg/L
[7]; [15]
  Removing rate (cadmium in blood): 0.07%
  Removing rate (cadmium in kidney): 54.0%
[7]; [16]
  Cadmium in blood: 68.54 ± 13.39 µg/L
  Cadmium in kidney: 5.92 ± 2.01 µg/L
[7]; [17]
  Removing rate (cadmium in blood): 35.8%
  Removing rate (cadmium in kidney): 91.7%
[7]; [18]
  Cadmium in blood: 17.67 ± 6.84 µg/L
  Cadmium in kidney: 1.85 ± 0.52 µg/L
[7]; [19]
  Removing rate (cadmium in blood): 11.1%
  Removing rate (cadmium in kidney): 75.8%
[7]; [20]
  Cadmium in blood: 24.34 ± 8.38 µg/L
  Cadmium in kidney: 3.93 ± 1.16 µg/L
[7]; high-dose group (D3 433, compound 3B 83.5, composition 3 and composition 3-preparation 108 mg/kg)
  Urine β2-microglobulin values: 161.64 ± 45.18 ng/L
[7]; low-dose group (D3 108, compound 3B 21, composition 3 and composition 3-preparation 27 mg/kg)
  Urine β2-microglobulin values: 197.15 ± 31.66 ng/L
[8]; 5 ± 3° C., 0 d (0 day content converted to 100%)
  main component content: 100%
[8]; 5 ± 3° C., 5 d
  main component content: 97.3%
[8]; 5 ± 3° C., 10 d
  main component content: 96.5%
[8]; 25 ± 2° C./60 ± 5% RH, 0 d (0 day content converted to 100%)
  main component content: 100%
[8]; 25 ± 2° C./60 ± 5% RH, 5 d
  main component content: 95.1%
[8]; 25 ± 2° C./60 ± 5% RH, 10 d
  main component content: 90.3%
[8]; 40 ± 2° C./75 ± 5% RH, 0 d (0 day content converted to 100%)
  main component content: 100%
[8]; 40 ± 2° C./75 ± 5% RH, 5 d
  main component content: 91.2%
[8]; 40 ± 2° C./75 ± 5% RH, 10 d
  main component content: 84.2%
[8]; 60° C., 0 d (0 day content converted to 100%)
  main component content: 100%
[8]; 60° C., 5 d
  main component content: 65.6%
[8]; 60° C., 10 d
  main component content: 64.2%
[8]; −25° C., 0 d (0 day content converted to 100%)
  main component content: 100%
[8]; −25° C., 5 d
  main component content: 101.2%
[8]; −25° C., 10 d
  main component content: 99.8%
